Experimental data from patent US8350097B2, “Therapeutic compounds” (priority 2007, dated 2013).
Entries after “also recorded” stand apart in the source; their conditions may differ. Where two headings read alike, the source gives them in different places. Marks after values point to notes of the source that are not given here.

What was measured:
[1] = system: pig; assay: Test B. Anesthetized Pig Model (hemodynamic profile); format: in vivo; conditions: equi-anesthetic doses (3 mg/kg vs propofol 6 mg/kg), FIGS. 1 and 2
Description: The hemodynamic profile of a compound of the invention can be determined using standard pharmacological models which are well known to the art. The hemodynamic and anesthetic profiles of a compound of the invention were evaluated simultaneously using an anesthetized pig model (as described in Test B below). In this assay, the hemodynamic profile of a compound of the invention was compared to that of propofol at equi-anesthetic doses.
Test B. Anesthetized Pig Model
The anesthetic induction will be performed using a modification of a technique described by Ko et al (Ko et al., Lab Anim Sci 1993; 43: 476-80) for swine (Telazol, xylazine and ketamine given as an intramuscular injection). […]
A pilot dose-finding study will be performed to establish an appropriate infusion dose for each agent. […] Blood samples (1 mL each) may be collected at pre-dose and at 2, 4, 6, 8, 10, 12, 15, 20, 22, […], 25, 35, 50, 65 and 80 minutes after the start of the first infusion for pharmacokinetic purposes; EEG will be recorded continuously as the primary pharmacodynamic endpoint. […]
The EEG signal will be fed to a BIS analyzer (Aspect Medical) which provides continuous output of processed EEG data. The output consists of a “BIS” number calculated by a proprietary algorithm that ranges between 100 (fully conscious) and 0 (isoelectric) and indicates brain activity. […]

[2] = system: Male descented ferrets; assay: Pro-emetic activity in ferrets; conditions: 6 ferrets, IV infusion 15 min at 1 mg/kg/min, 45 min observation
Description: (§1) Male descented ferrets weighing 1.0-1.5 kg with vascular access ports in the jugular vein were housed on a 12/12-hour light/dark cycle under controlled temperature, with food and water provided ad libitum. On each study day, food was presented to ferrets one hour prior to dosing. Immediately prior to dosing, food and water were removed. A 1% Compound 1 formulation, prepared as described in Example 2 and formulated in accordance with Example 5, or […] was administered by IV infusion to the ferrets; see Wynn R L et al, 1993, Eur J Pharmacol 241, 42 re […] administration in ferrets. After administration of Compound 1 or […], animals were placed in clean, transparent cages (with lids) and left unrestrained for a 45-min observation period by an observer blinded to the specific treatment administered.
(§2) Episodes of retching and/or vomiting were considered separate episodes when the interval between retches and/or vomits exceeded 5 sec.

[3] = system: Beagle dogs; assay: Hemodynamic effects (blood pressure) in beagle dogs, bolus IV; format: in vivo, dog; conditions: for MAP % change from baseline: 4 min after bolus IV
Description: The study was a crossover design. […] The MTD was defined as the dose that reduced mean arterial blood pressure (MAP) by 50% or to less than 50 millimeters of mercury (mmHg or mm Hg). All animals received supplemental oxygen and, if needed, ventilatory support after 4 min of apnea.
Hemodynamic data, such as mean arterial pressure (MAP), were recorded at baseline, 1, 2, 4, 8, 15, 20 and 30 min. Compound 1 was administered at 5, 10, 15 and 30 mg/kg to 6, 4, 3 and 3 dogs respectively. […] Data were analyzed with a 2-way ANOVA followed by t-test with Bonferroni correction for multiple comparisons.

[4] = system: Male descented ferrets; assay: Anti-emetic activity in ferrets (morphine sulfate-induced emesis); format: in vivo, ferret; conditions: 6 ferrets, 45 min observation
Description: as §1, §2
After termination of the infusion, 0.5 mg/kg morphine sulfate was administered subcutaneously and the ferrets were monitored for 45 min as described above. Six additional ferrets were administered subcutaneously 0.5 mg/kg morphine sulfate only.

[5] = Aqueous phase concentration in lipid emulsion (pain on injection surrogate), ultrafiltration + LC/MS/MS; format: physicochemical; conditions: for reduction in aqueous phase concentration compared to propofol in identical formulations: 1% lipid emulsions formulated per Example 5; for aqueous phase concentration: aqueous phase of 1% lipid emulsion separated by ultrafiltration
Description: The concentration of Compound 1 in the aqueous phase (aqueous phase concentration) of a lipid emulsion formulation was determined.
A one percent (1%) Compound 1 formulation was formulated in accordance with Example 5, Compound 1 being prepared as described in Example 2.

[6] = Pharmacokinetic study, IV infusion in domestic pigs; format: in vivo
Description: A 0.5% Compound 1 formulation, prepared as described in Example 2 and formulated in accordance with Example 6, was administered to 6 pigs via a 20-min intravenous (IV) infusion at 0.6 mg/kg/min (12 mg/kg total dose).

[7] = system: commercial farm-bred swine; assay: Hemodynamic effects, blood gas and serum chemistry in anesthetized ventilated pigs, IV infusion; format: in vivo, pig
Description: Anesthesia was induced with isoflurane. Intravascular access was obtained from an ear vein. Each pig was intubated and mechanically ventilated.
ECG was monitored throughout the study. […] Body temperature was maintained at 37° C.
Arterial blood gas samples from pigs infused with Compound 1 were taken and analyzed for blood gas and serum chemistry values.

[8] = system: Beagle dogs
[9] = Anesthetic effects in rats, bolus IV (LORR model of general anesthesia); format: in vivo, rat; conditions: male, Sprague-Dawley, rat, in vivo, read-out: MTD (maximum tolerated dose)
Description: (§3) Also measured was minimum dose to achieve LORR and maximum tolerated dose (MTD).
(§4) The ranges of doses studied were 2, 3, 4, 7, 14 and 21 mg/kg for Compound 1 and 3.5, 4.0, 7.0 and 14.0 mg/kg for […].

[10] = system: male Sprague-Dawley rats; assay: as above; format: in vivo, rat; conditions: for production of LORR by dose / deaths: 6 rats per dose group; for deaths: dose as stated
Description: as §3, §4

[11] = system: Male Sprague Dawley rats; assay: Test A. Loss of Righting Reflex Assay; format: in vivo, rat; conditions: for duration of anesthesia (loss of the Righting Reflex): 7 mg/kg bolus in tail vein, 1% formulation
Description: The ability of a compound of the invention to produce a sedative or hypnotic effect can be determined using standard pharmacological models which are well known to the art.
Test A. Loss of Righting Reflex Assay
Male Sprague Dawley rats were restrained in a holder and injection test compounds were injected in the tail vein (based on mg test compound/kg body weight). Following administration, the rats were placed in dorsal recumbent position on a heating blanket. The time to onset for the loss of the Righting Reflex (RR-ability of rat to right itself) was recorded, as was the duration of the loss of the RR.

[12] = system: commercial farm-bred swine; format: in vivo, pig; conditions: pigs, 0.6 mg per kg per min
Description: Experiments were performed on commercial farm-bred swine of either sex (mean weight 33.6 kg). Anesthesia was induced with isoflurane. Intravascular access was obtained from an ear vein. Each pig was intubated and mechanically ventilated. Tissue oxygenation was monitored using continuous pulse oximetry placed on the tongue. Ventilation was monitored using an inspired/expired gas analyzer that measured oxygen, carbon dioxide, and potent inhalation agent concentrations. Ventilator settings were adjusted as needed to maintain steady state.
ECG was monitored throughout the study. Arterial blood pressure was monitored through the cannulated left femoral artery. MAP, systolic and diastolic arterial pressures and heart rate were collected every 5 seconds. An internal jugular vein was cannulated with a pulmonary artery catheter for thermodilution estimates of cardiac output and blood temperature. Body temperature was maintained at 37° C.

[13] = 15 min IV infusion at 1 mg/kg/min then 0.5 mg/kg morphine sulfate s.c.
[14] = morphine sulfate 0.5 mg/kg subcutaneously alone

Row | SMILES | MAP % change from baseline ([3]; 10 mg/kg) | MAP % change from baseline ([3]; 15 mg/kg) | MAP % change from baseline ([3]; 30 mg/kg) | aqueous phase concentration [5] [µg/mL] | duration of anesthesia (sleep time) ([8]; dog, in vivo, iv, 5 mg/kg) [min] | duration of anesthesia (sleep time) ([8]; dog, in vivo, iv, 10 mg/kg) [min] | duration of anesthesia (sleep time) ([8]; dog, in vivo, iv, 15 mg/kg) [min] | duration of anesthesia (sleep time) ([8]; dog, in vivo, iv, 30 mg/kg) [min] | MTD [9] [mg/kg] | HD50 (dose required to cause 50% of the rats to lose righting reflex) [10] [mg/kg] | HD7 min (dose required to produce 7 minutes of anesthesia) [10] [mg/kg] | TI (therapeutic index; ratio of MTD to HD7 min) [10] | production of LORR by dose [10] | deaths [10] | duration of anesthesia (loss of the Righting Reflex) [11] [min] | other results
1 | CC[C@@H](C)c1cccc(C(C)C)c1O [Compound 1, (R)-(−)-2-sec-butyl-6-isopropylphenol] | 5% | −19% | −41% | 1.78 ± 0.17 | 23 | 33 | 40 | 71 | 14 | 2.3 | 3.4 | 4.1 | LORR at all doses of at least 3 mg/kg | Three rats died when administered 21 mg/kg | 14.9 | hemodynamic profile vs. propofol [1]: improved hemodynamic profile; episodes of vomiting or retching, drug administered alone [2]: did not produce any episodes of vomiting or retching; retches in the presence of morphine [4, 13]: 47; vomits in the presence of morphine [4, 13]: 1; reduction in aqueous phase concentration compared to propofol in DIPRIVAN ([5]; 1% Compound 1 formulation vs DIPRIVAN): 57%; reduction in aqueous phase concentration compared to propofol in identical formulations [5]: 72%; reduction in aqueous phase concentration compared to propofol in identical formulations ([5]; listed as (R)-(−)-2-sec-butyl-6-isopropylphenol): more than 70%; metabolic pathway [6]: glucuronidation in the 1-position with the 4-position being subject to hydroxylation followed by glucuronide and sulfate conjugation; Clearance ([6]; IV infusion): exceeded estimated hepatic blood flow; metabolic alterations (arterial blood gas and serum chemistry) ([7]; IV infusion 0.6 mg/kg/min): did not produce any significant metabolic alterations; anesthetic depth by Cumulative sedation scores ([8]; dog, in vivo): approximately equipotent anesthetic depth; duration of anesthesia (sleep time) compared with propofol ([8]; dog, in vivo, iv): similar; effect on BIS compared with propofol ([8]; dog, in vivo, iv): greater effect on BIS at doses of at least 15 mg/kg; hypnotic potency compared to propofol ([11]; Test A): more potent than propofol; IV infusion time producing maximal suppression of BIS (<10) [12]: 17.3 ± 1.9 min
2 | CC[C@H](C)c1cccc(C(C)C)c1O [(S)-(+)-2-sec-butyl-6-isopropylphenol] | +3% | +1% | −33% | – | – | – | – | – | 21 | 5 | 6.7 | 3.1 | – | One of six rats died when administered 28 mg/kg | – | duration of anesthesia (sleep time) ([8]; dogs, bolus IV, 5 mg/kg): 12 min; duration of anesthesia (sleep time) ([8]; dogs, bolus IV, 10 mg/kg): 33 min; duration of anesthesia (sleep time) ([8]; dogs, bolus IV, 15 mg/kg): 50 min; duration of anesthesia (sleep time) ([8]; dogs, bolus IV, 30 mg/kg): 56 min
3 | CC(C)c1cccc(C(C)C)c1O [propofol, 2,6-diisopropylphenol, reference compound] | −22% | −32% | −66%* | 6.28 ± 0.41 | 13 | 28 | 43 | 69 | < 14 | – | – | <2 | no LORR in 4 of 6 rats tested at 3.5 mg/kg | – | 7.1 | effect on MAP, comparison ([3]; bolus IV): significantly greater effect on MAP than does Compound 1; also recorded: significantly greater effect on MAP than did (S)-(+)-2-sec-butyl-6-isopropylphenol; decrease in MAP, comparison ([7]; IV infusion, Compound 1 0.6 mg/kg/min vs propofol 0.750 mg/kg/min, FIG. 3): significantly larger decrease in MAP than Compound 1; lowest HR measured, comparison ([7]; IV infusion, Compound 1 0.6 mg/kg/min vs propofol 0.750 mg/kg/min, FIG. 4): significantly lower than the lowest HR measured for Compound 1; dogs reaching the MTD (MAP reduced by 50% or to less than 50 mmHg) ([8]; dog, in vivo, iv, 15 mg/kg): Two of 3 dogs
4 | CN1CC[C@]23c4c5ccc(O)c4O[C@H]2[C@@H](O)C=C[C@H]3[C@H]1C5.O=S(=O)(O)O [Morphine sulfate, reference compound] | – | – | – | – | – | – | – | – | – | – | – | – | – | – | – | episodes of vomiting [4, 14]: 15; retches [4, 14]: 157
